Publication PMC2989405 (Cell, 2009)

What was measured:
rat MrgprA = biological target: T1, rat MrgprA (Rattus norvegicus, UniProt Q7TN49); assay: response of electroporated Mrgpr-deficient mouse DRG neurons; assay type: cell-based; details: agonist
T1 sequence (Q7TN49 1-304): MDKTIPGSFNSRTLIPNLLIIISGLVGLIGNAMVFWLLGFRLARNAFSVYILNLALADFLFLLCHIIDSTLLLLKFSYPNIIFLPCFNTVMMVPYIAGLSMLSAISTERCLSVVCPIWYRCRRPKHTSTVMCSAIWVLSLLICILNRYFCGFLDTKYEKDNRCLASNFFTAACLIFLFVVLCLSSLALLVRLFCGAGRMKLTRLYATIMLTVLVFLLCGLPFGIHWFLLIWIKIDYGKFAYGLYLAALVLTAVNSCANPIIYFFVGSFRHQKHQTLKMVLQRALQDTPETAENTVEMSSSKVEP

MrgprA3 = biological target: T2, MrgprA3 (Mus musculus, UniProt Q91WW3); assay: calcium imaging; assay type: cell-based; details: agonist; dose-response in figure
T2 sequence (Q91WW3 1-302): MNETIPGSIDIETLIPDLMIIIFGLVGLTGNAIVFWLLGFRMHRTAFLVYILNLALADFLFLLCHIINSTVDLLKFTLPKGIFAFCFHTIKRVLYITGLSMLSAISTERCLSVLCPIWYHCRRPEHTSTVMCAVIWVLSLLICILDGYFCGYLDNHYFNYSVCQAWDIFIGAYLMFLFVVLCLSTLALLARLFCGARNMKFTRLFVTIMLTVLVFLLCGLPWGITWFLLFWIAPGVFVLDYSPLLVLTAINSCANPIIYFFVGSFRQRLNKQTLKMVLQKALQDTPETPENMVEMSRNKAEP

CCN(CC)CCCC(C)Nc1ccnc2cc(Cl)ccc12 (centres unmarked) [chloroquine]
response of electroporated Mrgpr-deficient mouse DRG neurons (rat MrgprA): Expression of rat MrgprA in Mrgpr-clusterΔ^−/− DRG neurons conferred CQ sensitivity upon them

C=C[C@H]1CN2CC[C@H]1C[C@H]2[C@H](O)c1ccnc2ccc(OC)cc12 [quinine]
calcium imaging (fura-2) in transfected HEK293 cells (MrgprA3): Unlike CQ, quinine weakly activates MrgprA3
